target: BTK (Homo sapiens (Human), UniProt Q06187); assay: In house ELISA kinase inhibition assay, BTK; assay type: biochemical; conditions: footnote b: from in house procedure (ELISA)
Procedure: BTK inhibition Assay and selectivity Assay The assay was conducted either a by a third party (Reaction Biology Corporation, PA, USA) or in house.
b) In House Procedure for BTK, BMX, EGFR and ITK:
Kinase inhibitory activities of compounds were evaluated using the Enzyme-linked immunosorbent assay (ELISA). The kinase enzyme of BTK, BMX, EGFR and ITK were purchased from Carna Bioscience (Kobe, Japan). A total of 10 ng/mL antiphosphotyrosine (PY713) antibody (abcam, Cambridge Science Park, UK) was precoated in 96-well ELISA plates. The kinase enzymes in each reaction well were set to BTK (101.25 ng/mL), BMX (90 ng/mL), EGFR (90 ng/mL) or ITK (120 ng/mL) and incubated with indicated drugs in 1× reaction buffer (50 mmol/L HEPES pH 7.4, 20 mmol/L MgCl2, 0.1 mmol/L MnCl2, 1 mmol/L DTT) containing 20 μmol/L (the final concentration of substrate in ITK reaction was 30 μmol/L) substrate (NH2-[…]-biotin) at 25° C. for 1 h. Then, a total of 3 μmol/L ATP was added and the reaction was continued for 2 h. The products of reaction were transferred into 96-well ELISA plates containing antibody and incubated at 25° C. for 30 min. After incubation, the wells were washed with PBS and then incubated with horseradish peroxidase (HRP)-conjugated streptavidin. The wells were visualized using 3,3′,5,5′-tetramethylbenzidine (TMB), and chromogenic reaction was ended with 2 mol/L H2SO4, the absorbance was read with a multimode plate reader (PerkinElmer, USA) at 450 nm. IC50 values and curve fits were obtained using Prism (GraphPad Software). (Table I-IV)

Sequence of BTK (Q06187 whole entry): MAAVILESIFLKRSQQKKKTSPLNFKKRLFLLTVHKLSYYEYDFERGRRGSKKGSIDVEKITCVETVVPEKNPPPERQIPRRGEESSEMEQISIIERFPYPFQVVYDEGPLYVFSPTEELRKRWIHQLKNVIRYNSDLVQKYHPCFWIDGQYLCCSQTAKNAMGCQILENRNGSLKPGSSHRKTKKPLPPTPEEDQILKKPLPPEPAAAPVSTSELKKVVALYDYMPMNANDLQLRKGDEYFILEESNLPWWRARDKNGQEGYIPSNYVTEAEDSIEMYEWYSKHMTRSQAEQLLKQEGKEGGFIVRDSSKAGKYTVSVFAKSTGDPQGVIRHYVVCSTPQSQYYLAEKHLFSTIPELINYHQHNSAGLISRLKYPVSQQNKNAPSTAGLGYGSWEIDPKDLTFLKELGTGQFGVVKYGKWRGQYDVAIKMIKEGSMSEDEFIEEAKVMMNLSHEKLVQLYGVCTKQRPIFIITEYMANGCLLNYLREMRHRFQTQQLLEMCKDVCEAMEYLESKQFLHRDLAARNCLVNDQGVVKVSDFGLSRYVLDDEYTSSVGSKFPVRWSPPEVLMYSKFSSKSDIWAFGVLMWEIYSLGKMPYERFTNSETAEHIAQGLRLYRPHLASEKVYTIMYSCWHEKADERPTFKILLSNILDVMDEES

| SMILES | IC50 [nM] |
| --- | --- |
| C=CC(=O)N1CCC[C@H]1c1nc(-c2ccc(C(=O)Nc3cc(C(F)(F)F)ccn3)cc2)c(C(N)=O)n1N [Example 42, (S)-2-(1-acryloylpyrrolidin-2-yl)-1-amino-4-(4-((4-(trifluoromethyl)pyridin-2-yl)carbamoyl)phenyl)-1H-imidazole-5-carboxamide] | 48 |
| C=CC(=O)N1CCC[C@H]1c1nc(-c2ccc(C(=O)Nc3cc(OC)ccn3)cc2)c(C(N)=O)n1N [Example 28, (S)-2-(1-acryloylpyrrolidin-2-yl)-1-amino-4-(4-((4-methoxypyridin-2-yl)carbamoyl)phenyl)-1H-imidazole-5-carboxamide] | 72.9 |
| C=CC(=O)N1CCC[C@H]1c1nc(-c2ccc(C(=O)Nc3cc(C(C)C)ccn3)cc2)c(C(N)=O)n1N [Example 44, (S)-2-(1-acryloylpyrrolidin-2-yl)-1-amino-4-(4-((4-isopropylpyridin-2-yl)carbamoyl)phenyl)-1H-imidazole-5-carboxamide] | 122 |
| CC#CC(=O)N1CCCC[C@H]1c1nc(-c2ccc(C(=O)Nc3cc(C)ccn3)cc2)c(C(N)=O)n1N [Example 58, (S)-1-amino-2-(1-(but-2-ynoyl)piperidin-2-yl)-4-(4-((4-methylpyridin-2-yl)carbamoyl)phenyl)-1H-imidazole-5-carboxamide] | 58.1 |
| COc1ccnc(NC(=O)c2ccc(-c3nc([C@@H]4CCCCN4C(=O)/C=C/C(F)(F)F)n(N)c3C(N)=O)cc2)c1 [Example 69, (S,E)-1-amino-4-(4-((4-methoxypyridin-2-yl)carbamoyl)phenyl)-2-(1-(4,4,4-trifluorobut-2-enoyl)piperidin-2-yl)-1H-imidazole-5-carboxamide] | 70.7 |
| CC#CC(=O)N1CCCC[C@H]1c1nc(-c2ccc(C(=O)Nc3ccccn3)cc2)c(C(N)=O)n1N [Example 50, (S)-1-amino-2-(1-(but-2-ynoyl)piperidin-2-yl)-4-(4-(pyridin-2-ylcarbamoyl)phenyl)-1H-imidazole-5-carboxamide] | 100 |
| Cc1ccnc(NC(=O)c2ccc(-c3nc([C@@H]4CCCCN4C(=O)/C=C/C(F)(F)F)n(N)c3C(N)=O)cc2)c1 [Example 60, (S,E)-1-amino-4-(4-((4-methylpyridin-2-yl)carbamoyl)phenyl)-2-(1-(4,4,4-trifluorobut-2-enoyl)piperidin-2-yl)-1H-imidazole-5-carboxamide] | 43.9 |
| C=CC(=O)N1CCCC[C@H]1c1nc(-c2ccc(C(=O)Nc3cc(-c4ccccc4)ccn3)cc2)c(C(N)=O)n1N [Example 65, (S)-2-(1-acryloylpiperidin-2-yl)-1-amino-4-(4-((4-phenylpyridin-2-yl)carbamoyl)phenyl)-1H-imidazole-5-carboxamide] | 5.06 |
| CC#CC(=O)N1CCC[C@H]1c1nc(-c2ccc(C(=O)Nc3ccc(C)cn3)cc2)c(C(N)=O)n1N [Example 27, (S)-1-amino-2-(1-(but-2-ynoyl)pyrrolidin-2-yl)-4-(4-((5-methylpyridin-2-yl)carbamoyl)phenyl)-1H-imidazole-5-carboxamide] | 2060 |
| CC#CC(=O)N1CCC[C@H]1c1nc(-c2ccc(C(=O)Nc3cc(F)ccn3)cc2)c(C(N)=O)n1N [Example 41, (S)-1-amino-2-(1-(but-2-ynoyl)pyrrolidin-2-yl)-4-(4-((4-fluoropyridin-2-yl)carbamoyl)phenyl)-1H-imidazole-5-carboxamide] | 1680 |
| C=CC(=O)N1CCCC[C@H]1c1nc(-c2ccc(C(=O)Nc3cc(C)ccn3)cc2)c(C(N)=O)n1N [Example 53, (S)-2-(1-acryloylpiperidin-2-yl)-1-amino-4-(4-((4-methylpyridin-2-yl)carbamoyl)phenyl)-1H-imidazole-5-carboxamide] | 18.1 |
| CC#CC(=O)N1CCC[C@H]1c1nc(-c2ccc(C(=O)Nc3cc(C(F)(F)F)ccn3)cc2)c(C(N)=O)n1N [Example 43, (S)-1-amino-2-(1-(but-2-ynoyl)pyrrolidin-2-yl)-4-(4-((4-(trifluoro-methyl)pyridin-2-yl)carbamoyl)phenyl)-1H-imidazole-5-carboxamide] | 577 |
| CC#CC(=O)N1CCC[C@H]1c1nc(-c2ccc(C(=O)Nc3cc(CC)ccn3)cc2)c(C(N)=O)n1N [Example 38, (S)-1-amino-2-(1-(but-2-ynoyl)pyrrolidin-2-yl)-4-(4-((4-ethylpyridin-2-yl)carbamoyl)phenyl)-1H-imidazole-5-carboxamide] | 1040 |

The next lines start with the values.

| IC50 [nM] | SMILES |
| --- | --- |
| 2280 | CC#CC(=O)N1CCCC[C@H]1c1nc(-c2ccc(C(=O)Nc3cccnn3)cc2)c(C(N)=O)n1N [Example 102, (S)-1-amino-2-(1-(but-2-ynoyl)piperidin-2-yl)-4-(4-(pyridazin-3-ylcarbamoyl)phenyl)-1H-imidazole-5-carboxamide] |
| 85.6 | C=CC(=O)N1CC2(CC(c3nc(-c4ccc(C(=O)Nc5cc(CC)ccn5)cc4)c(C(N)=O)n3N)C2)C1 [Example 95, 2-(2-acryloyl-2-azaspiro[3.3]heptan-6-yl)-1-amino-4-(4-((4-ethylpyridin-2-yl)carbamoyl)phenyl)-1H-imidazole-5-carboxamide] |
| 19.2 | C#CC(=O)N1CCCC[C@H]1c1nc(-c2ccc(C(=O)Nc3cc(C)ccn3)cc2)c(C(N)=O)n1N [Example 96, (S)-1-amino-4-(4-((4-methylpyridin-2-yl)carbamoyl)phenyl)-2-(1-propioloylpiperidin-2-yl)-1H-imidazole-5-carboxamide] |
| 14.8 | CC#CC(=O)N1CCCC[C@H]1c1nc(-c2ccc(C(=O)Nc3cc(-c4ccc(Cl)cc4)ccn3)cc2)c(C(N)=O)n1N [Example 110, (S)-1-amino-2-(1-(but-2-ynoyl)piperidin-2-yl)-4-(4-((4-(4-chlorophenyl)pyridin-2-yl)carbamoyl)phenyl)-1H-imidazole-5-carboxamide] |
| 2.78 | C#CC(=O)N1CCCC[C@H]1c1nc(-c2ccc(C(=O)Nc3cc(Cl)ccn3)cc2)c(C(N)=O)n1N [Example 99, (S)-1-amino-4-(4-((4-chloropyridin-2-yl)carbamoyl)phenyl)-2-(1-propioloylpiperidin-2-yl)-1H-imidazole-5-carboxamide] |
| 15 | C=CC(=O)N1CCCC[C@H]1c1nc(-c2ccc(C(=O)Nc3cc(F)ccn3)cc2)c(C(N)=O)n1N [Example 106, (S)-2-(1-acryloylpiperidin-2-yl)-1-amino-4-(4-((4-fluoropyridin-2-yl)carbamoyl)phenyl)-1H-imidazole-5-carboxamide] |
| 226 | C=CC(=O)N1CCCCCC1c1nc(-c2ccc(C(=O)Nc3cc(CC)ccn3)cc2)c(C(N)=O)n1N (stereo not drawn) [Example 94, 2-(1-acryloylazepan-2-yl)-1-amino-4-(4-((4-ethylpyridin-2-yl)carbamoyl)phenyl)-1H-imidazole-5-carboxamide] |
| 121 | CC#CC(=O)N1CCCC[C@H]1c1nc(-c2ccc(C(=O)Nc3cc(C)c(F)cn3)cc2)c(C(N)=O)n1N [Example 108, (S)-1-amino-2-(1-(but-2-ynoyl)piperidin-2-yl)-4-(4-((5-fluoro-4-methylpyridin-2-yl)carbamoyl)phenyl)-1H-imidazole-5-carboxamide] |
| 459 | CC#CC(=O)N1CCC(Cc2nc(-c3ccc(C(=O)Nc4ccccn4)cc3)c(C(N)=O)n2N)CC1 [Example 104, 1-amino-2-((1-(but-2-ynoyl)piperidin-4-yl)methyl)-4-(4-(pyridin-2-ylcarbamoyl)phenyl)-1H-imidazole-5-carboxamide] |
| 6560 | CCc1ccnc(NC(=O)c2ccc(-c3nc([C@@H]4CCCCN4C(=O)/C(C#N)=C/C4CC4)n(N)c3C(N)=O)cc2)c1 [Example 78, (S,E)-1-amino-2-(1-(2-cyano-3-cyclopropylacryloyl)piperidin-2-yl)-4-(4-((4-ethylpyridin-2-yl)carbamoyl)phenyl)-1H-imidazole-5-carboxamide] |
| 211 | C=CC(=O)N1CCCC[C@H]1c1nc(-c2ccc(C(=O)Nc3cccnn3)cc2)c(C(N)=O)n1N [Example 101, (S)-2-(1-acryloylpiperidin-2-yl)-1-amino-4-(4-(pyridazin-3-ylcarbamoyl)phenyl)-1H-imidazole-5-carboxamide] |
| 176 | C=CC(=O)N1CCC(Cc2nc(-c3ccc(C(=O)Nc4ccccn4)cc3)c(C(N)=O)n2N)CC1 [Example 103, 2-((1-acryloylpiperidin-4-yl)methyl)-1-amino-4-(4-(pyridin-2-ylcarbamoyl)phenyl)-1H-imidazole-5-carboxamide] |
| 45.6 | CC#CC(=O)N1CCCC[C@H]1c1nc(-c2ccc(C(=O)Nc3cc(C#N)ccn3)cc2)c(C(N)=O)n1N [Example 82, (S)-1-amino-2-(1-(but-2-ynoyl)piperidin-2-yl)-4-(4-((4-cyanopyridin-2-yl)carbamoyl)phenyl)-1H-imidazole-5-carboxamide] |
| 22.8 | CC#CC(=O)N1CCCC[C@H]1c1nc(-c2ccc(C(=O)Nc3cc(-c4ccc(C#N)cc4)ccn3)cc2)c(C(N)=O)n1N [Example 112, (S)-1-amino-2-(1-(but-2-ynoyl)piperidin-2-yl)-4-(4-((4-(4-cyanophenyl)pyridin-2-yl)carbamoyl)phenyl)-1H-imidazole-5-carboxamide] |

From US12291516B2, “Substituted 1-amino-1H-imidazole-5-carboxamide as Bruton's tyrosine kinase inhibitors” (Henan Zhiwei Biomedicine Co., Ltd., priority 2019, dated 2025)
